Data: patent publication US20070009537A1, “Antimicrobial activity of antibodies producing reactive oxygen species” (priority 2002, published 2007)
“Also recorded” adds a separate entry of the source. Like-named read-outs stand apart in the source and are kept apart here.

What was measured:
[1] = Decomposition of O3 under aqueous conditions; type: physicochemical; settings: PBS pH 7.4, 22° C., OD 260 nm
Procedure: The rate of decomposition of O3 under the aqueous conditions employed was measured by the following method. Ozone, produced by a passage of O2 through a Polymetrics ozonizer, was bubbled for 2 min through a phosphate buffered saline (PBS, pH 7.4) solution in a quartz cuvette (1 cm^2) at room temperature. The time-dependent change in optical density was then measured at 260 nm (ε=2,700 M^−1 cm^−1) for at least 5 half lives in a Hitachi u.v./vis spectrophotometer equipped with a thermostatted rack at 22° C. See Takeuchi et al., Anal. Chim. Acta. 230, 183 (1990). […] The sensitivity of the assay was limited by spectrophotometer accuracy to±0.1% (˜1 μM) of the OD at t=0.

[2] = tested on: E. coli; assay: Bactericidal assay (CFU recovery), strain not specified; type: cell-based
Procedure: (§1) In a typical experiment, a culture of E. coli (in log phase growth, OD600=0.2-0.3) was repeatedly pelleted (3×3,500 rpm) and resuspended in PBS (pH 7.4). The PBS suspended cells were then added to glass vials and cooled to 4° C. Hematoporphyrin IX (40 μM) and antibody (20 μM) were added and the vials were either placed on a light box (visible light, 2.8 mW cm^−2) or in the dark at 4° C. and incubated for 1 h. Viability was determined by recovery of colony forming units (CFUs) on agar plates. Each experiment was performed at least in duplicate.
as §1, with “washed in PBS by pelleting” for “pelleted”, “rpm) the cells” for “rpm)”, “resuspending them” for “resuspended”

[3] = tested on: S. typhimurium; assay: Bactericidal assay (CFU recovery); type: cell-based, Salmonella typhimurium
Procedure: In a typical experiment, a culture of S. typhimurium in log phase growth at OD600=0.2-0.3 was repeatedly pelleted (3×3,500 rpm) and resuspended in PBS (pH 7.4). The PBS suspended cells were then added to glass vials and cooled to 4° C. hematoporphyrin IX solution (40 μM) and antibody (20 μM) were added. The vials were placed either on a light box (visible light, 2.8 mW cm^−2) or in the dark at 4° C. Incubation was for 1 hour. Viability was determined by recovery of colony forming units (CFUs) on agar plates. Each experiment was performed with at least duplicate samples.

[4] = tested on: E. coli O112a,c; type: cell-based; settings: 40 μM, white light 2.7 mW cm^−2, 1 h, PBS pH 7.4, 4±1° C.
Procedure: as §1
as §1, with “washed in PBS by pelleting” for “pelleted”, “rpm) the cells” for “rpm)”, “resuspending them” for “resuspended”

[5] = tested on: E. coli XL1-blue; assay: Bactericidal assay (CFU recovery); type: cell-based
Procedure: as §1
as §1, with “washed in PBS by pelleting” for “pelleted”, “rpm) the cells” for “rpm)”, “resuspending them” for “resuspended”

[6] = H2O2 production by UV irradiation of antibody/protein samples (Amplex Red assay); type: biochemical
Procedure: Aliquots (10 μL) were removed at timed intervals throughout the assay. H2O2 concentration was determined by the amplex red method. Each data point is reported as the mean±SEM of at least duplicate measurements: • polyclonal (poly) immunoglobulin (Ig) G, human; O poly-IgG, horse; □ poly-IgG, sheep; ∇ monoclonal (m) IgG (WD1-6G6), murine; Δ poly-IgM, human; ⋄ mIgG (92H2), murine; ▪ β-galactosidase (β-gal); ▴ chick ovalbumin (OVA); ▾ α-lactalbumin (α-lact); ♦ bovine serum albumin (BSA).
An aliquot (20 μl) from the protein solution was removed and added into a well of a 96-well microtiter plate (Costar) containing reaction buffer (80 μl). Working solution (100 μl/400 μM Amplex Red reagent 1/2 units/ml horseradish peroxidase) was then added, and the plate was incubated in the dark for 30 min. The fluorescence of the well components was then measured using a CytoFluor Multiwell Plate Reader (Series 4000, PerSeptive Biosystems, Framingham, Mass.; Ex/Em: 530/580 nm). The hydrogen peroxide concentration was determined using a standard curve. All experiments were run in duplicate, and the rate is quoted as the mean of at least two measurements.
The resultant solution was transferred to a glass, screw-cap vial and irradiated with UV light for 30 min. The concentration of H2O2 was determined after 30 min.

O=[O+][O-] [Clone O3, ozone]
half-life (t½) [1]: 66 s | half-life (t½) ([1]; listed as ozone): 6 s

O=C(O)CN(CCN(CC(=O)O)CC(=O)O)CC(=O)O [EDTA]
effect on survival of bacteria in the assay system ([2]; 2 mM): no effect on the survival of bacteria | effect on survival of bacteria in the assay system ([3]; 2 mM): no effect on the survival of bacteria

CC1=C(CCC(=O)O)c2cc3[nH]c(cc4nc(cc5[nH]c(cc1n2)c(C)c5C(C)O)C(C)=C4C(C)O)c(C)c3CCC(=O)O (centres unmarked) [hematoporphyrin IX]
bactericidal activity of sensitizer alone [4]: negligible bactericidal activity | bactericidal activity of sensitizer alone ([5]; 40 μM, white light 2.7 mW cm^−2, 1 h, PBS pH 7.4, 4±1° C.): negligible bactericidal activity

N[C@@H](Cc1c[nH]c2ccccc12)C(=O)O [tryptophan]
H2O2 production during photo-oxidation ([6]; near-UV irradiation, tryptophan 20 μM): ca. 0.5 mole equivalents

bovine serum albumin: non-specific protein control
bacterial killing ([2]; 20 μM): no bacterial killing | bacterial killing ([3]; 20 μM): no bacterial killing

catalase
effect on bactericidal activity of non-specific antibodies ([2]; catalase 13 mU/mL, 11 non-specific murine monoclonal antibodies): completely attenuated | protection against the bactericidal activity of non-specific antibodies ([5]; FIG. 17A, catalase 13 mU/mL): complete protection

chick ovalbumin: chick-egg ovalbumin
ability to reduce 1O2 (produce reactive oxygen species from singlet oxygen), panel of other proteins [6]: one of the most efficient proteins at reducing ^1O2

superoxide dismutase: enzyme from Sigma, non-immunoglobulin control protein
ability to reduce 1O2 (produce reactive oxygen species from singlet oxygen), panel of other proteins [6]: do not reduce ^1O2; also recorded: does not reside | rate of hydrogen peroxide generation ([6]; superoxide dismutase irradiated in PBS): the same as irradiation of PBS alone

β-galactosidase: most efficient non-immunoglobulin protein at generating H2O2
H2O2 photo-production ([6]; near-UV irradiation, from its 39 Trp residues): 5.9 mol eq.

B1: RNase A: ribonuclease, non-immunoglobulin control protein (protein, UniProt P61823 27-150, looked up)
Ribonuclease pancreatic: KETAAAKFERQHMDSSTSAASSSNYCNQMMKSRNLTKDRCKPVNTFVHESLADVQAVCSQKNVACKNGQTNCYQSYSTMSITDCRETGSSKYPNCAYKTTQANKHIIVACEGNPYVPVHFDASV
ability to reduce 1O2 (produce reactive oxygen species from singlet oxygen), panel of other proteins [6]: do not reduce ^1O2 | ability to reduce 1O2 (produce reactive oxygen species from singlet oxygen), panel of other proteins ([6]; listed as RNaseA): does not reside
